Test system: yeast cells
Test: EMS mutagenesis of yeast cells (kill rate)
Format: cell-based
Settings: 3 μL EMS in 200 μL cell suspension (OD600 around 10), approximately one hour
Experimental: For example, yeast cells from a fresh YP (yeast extract/peptone)+20 g/L glucose plate or liquid culture (OD600 1-4) are resuspended in sterile water to an OD600 of around 10. 200 μL aliquots of this cell suspension are pipetted into individual tubes and exposed to 3 μL […] (EMS) for approximately one hour, which kills around 65% of the cells. Higher EMS concentrations can also be used to increase the kill rate. After exposure, cells are neutralized with 5% sodium thiosulfate, washed in PBS buffer, recovered in rich media for approximately four hours, and cultured on selective media. Mock samples (no EMS) are also run to ensure that the conditions are selective. Alternatively, cells can be mutagenized using UV irradiation.

## CCOS(C)(=O)=O [ethane methyl sulfonate (EMS), ethane methyl sulfonate]
  cells killed: around 65%

Reference: US12054721B2, “Compositions and methods for 3-hydroxypropionic acid production” (CARGILL, INCORPORATED, priority 2010, dated 2024)
